We go through nine compounds from paper PMC2895357 (Journal of Medicinal Chemistry, 2010).

Series [1] addresses T1, TbGalE (UDP-galactose 4′-epimerase from Trypanosoma brucei) (Trypanosoma brucei, UniProt Q8T8E9).
T1 sequence (Q8T8E9 1-395): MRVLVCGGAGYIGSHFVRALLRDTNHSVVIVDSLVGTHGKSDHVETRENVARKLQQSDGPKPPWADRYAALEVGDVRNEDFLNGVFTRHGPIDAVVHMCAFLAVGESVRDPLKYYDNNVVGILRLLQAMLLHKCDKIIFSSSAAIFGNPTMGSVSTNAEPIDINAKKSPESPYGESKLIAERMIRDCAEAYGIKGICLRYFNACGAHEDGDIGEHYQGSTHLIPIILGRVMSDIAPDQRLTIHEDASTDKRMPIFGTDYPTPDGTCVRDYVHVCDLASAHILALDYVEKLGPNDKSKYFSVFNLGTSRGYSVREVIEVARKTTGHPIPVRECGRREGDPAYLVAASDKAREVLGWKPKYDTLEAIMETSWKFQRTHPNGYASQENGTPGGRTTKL
The experiment in a line: TbGalE inhibition assay. The format is biochemical. Particulars: for Hill Slope: TbGalE potency curve.

Series [2] is described as follows: Cytotoxicity assay against human MRC5 cells. The class given is cell-based. Particulars: human, MRC5 cells.
A further series concerns Trypanosoma cruzi. Particulars: cited from earlier work.
The subject of the next series is cultured T. brucei. The format is cell-based, Trypanosoma brucei. Conditions: whole-cell T. brucei, three days, Alamar Blue.
The test system of a further series is human MRC5 cells. Put plainly: Cytotoxicity assay against human MRC5 cells. The format is cell-based. Conditions: human MRC5 cells, three days, Alamar Blue. Background: Resazurin is reduced to fluorescent resorufin, in cell work by metabolically active cells.

What is called EC50 is the concentration needed to bring the measured effect to its halfway point. Lower therefore signals an effect from little substance. A word on the inhibition: it is the percentage by which the read-out fell short of the control.

As for `O=C(O)c1ccccc1-c1ccccc1C(=O)Nc1ccc2c(c1)nc(O)c1ccccc12` [compound 1], the “Hill Slope” value in series [1] worked out at 1.8 ± 0.6. Besides, in series [2], the EC50 at 3 days is > 50 µM.
For `CCn1c2ccccc2c2cc(NC(=O)c3ccccc3-c3ccccc3C(=O)O)ccc21` [compound 2], the “Hill Slope” value in series [1] is 1.2 ± 0.3. Also, in series [2], the EC50 at 3 days is > 50 µM.
Take `COC1C(OC(=O)c2ccc(C)[nH]2)C(O)C(Oc2ccc3c(O)c(NC(=O)c4ccc(O)c(CC=C(C)C)c4)c(=O)oc3c2Cl)OC1(C)C` (stereo not drawn) [compound 3, clorobiocin]: the “Hill Slope” value in series [1] stood at 2.1 ± 0.5. Further, the EC50 at 3 days in series [2] was > 50 µM. Moreover, in the series with Trypanosoma cruzi, the “inhibition of growth of Trypanosoma cruzi” value is recorded as “inhibit the growth”.
In the case of `O=C(O)c1ccccc1-c1ccccc1C(=O)Nc1ccc2c(c1)C(=O)c1ccccc1-2` [compound 5], in series [2], the EC50 at 3 days was > 50 µM.
Still for that read-out and setting: then `O=C(O)c1ccccc1-c1ccccc1C(=O)Nc1ccc2c(c1)Cc1cc(F)ccc1-2` [compound 10], with > 50 µM; and `O=C(O)c1ccccc1-c1ccccc1C(=O)Nc1cc2c3ccccc3ccc2c2ccccc12` [compound 12], with > 50 µM.
Still for that read-out and setting: then `O=C(O)c1cc(Cl)ccc1-c1ccc(Cl)cc1C(=O)Nc1ccc2c(c1)Cc1ccccc1-2` [compound 13], with > 50 µM.
As to `O=C(O)c1cc(Cl)ccc1-c1ccc(Cl)cc1C(=O)NC1=CC2=C(CC1)c1c(Cl)cc(Cl)cc1C2` [compound 14], the “Tb EC50” value with cultured T. brucei is reported as “no activity”. Besides, the “MRC5 EC50” value in the series on human MRC5 cells is on record as “demonstrated inhibition of MRC5 growth”.
As for `CO[C@@H]1[C@@H](OC(N)=O)[C@@H](O)[C@H](Oc2ccc3c(O)c(NC(=O)c4ccc(O)c(CC=C(C)C)c4)c(=O)oc3c2C)OC1(C)C` [novobiocin, reference compound], the inhibition at 10 µM in series [1] (read-out: TbGalE inhibition at 10 μM) is ≤ 50%. In addition, the “inhibition of growth of Trypanosoma cruzi” value in the series with Trypanosoma cruzi was “inhibits the growth”.
